Data from patent US7829662B2, “Method of treating apoptosis and compositions thereof” (Dana Farber Cancer Institute, Inc., priority 2001, dated 2010).
“Also recorded” adds a separate entry of the source.

Assays:
Bak −/− mitochondria = experiment: Digitonin releasable cytochrome c pool; type: biochemical; conditions: digitonin concentration that does not interfere with IM function (80 pmol × mg protein^−1, 5 mins)
mitochondria [1] = experiment: Cytochrome c release from isolated liver mitochondria (immunoblot densitometry or ELISA); type: biochemical, Balb/cJ mice
Procedure: Mitochondria were isolated from liver of Balb/cJ mice by standard differential centrifugation, and resuspended in isolation buffer (IB) (0.2 M sucrose, 10 mM Tris-MOPS pH 7.4, 0.1 mM EGTA-Tris, 0.1% delipidated BSA).
At the indicated time, mitochondria were pelleted by centrifugation at 12000×g at 4° C. for 3 min, and resuspended in the same volume of EB. Cytochrome c release was determined either by densitometry (Stratagene Eagle Eye II, BioRad) of immunoblots, or by rat/mouse specific ELISA performed on mitochondrial pellet and supernatant diluted 1:20 in PBS containing 0.5% Triton X-100 (R&D systems, MN). Cytochrome c is reported as the percentage of the supernatant over the total (pellet plus supernatant).
For SDS-PAGE, 20 μg of mitochondrial protein was loaded in each lane of a 12% NuPAGE (NoVex, CA) gel. After separation, proteins were transferred onto PVDF membranes (Immobilon-P, Millipore, Calif.) and membranes were probed as indicated with the following primary antibodies: anti-cytochrome c (Pharmingen, CA, 1:1000); anti-BID (1:1500); anti-BAK (Calbiochem, CA, 1:1000). HRPO-conjugated secondary antibodies (CalTag, CA, 1:2000) were visualized by chemiluminescence (Amersham, N.J.).
(§1) Mitochondria were incubated with increasing amounts of digitonin to assess how much cytochrome c was released from IMS by the selective solubilization of the OM (Hoppel and Cooper, 107, 367-375, 1968). To monitor interaction of digitonin with the […], uncoupled respiration in the presence of excess exogenous cytochrome c was assessed. Specifically 0.5 mg/ml mitochondria was incubated in EB with the indicated concentration of digitonin. After 5 minutes, mitochondria were centrifuged and cytochrome c content in the resulting pellet and supernatant were determined as described. Uncoupled JO2, uncoupled respiratory rate was recorded in parallel experiments. After 5 minutes of incubation with the indicated concentration of digitonin, mitochondria were treated with 400 pmol CCCP×mg protein-1 in the presence of 10 nmol cytochrome c×mg protein.

mitochondria [2] = experiment: Uncoupled respiration (JO2) of digitonin-treated mitochondria; type: biochemical, Balb/cJ mice; conditions: CCCP, exogenous cytochrome c
Procedure: as §1, with “protein. Approximately 16% of the total cytochrome c could be released by digitonin without substantial respiratory inhibition (no interference of digitonin with the IM) (Table 1), a percentage in agreement with the pool of cytochrome c estimated to reside in the IMS (Bernardi and Azzone, 1981). Therefore, tBID must deploy additional events to enable the release of nearly all cytochrome c from the mitochondrion.” for “protein.”

BAK = BAK oligomerization (BMH crosslinking, anti-BAK immunoblot); type: biochemical, Balb/cJ mice; conditions: 10 μM BID α6 14mer, 30 min
Procedure: In lanes 7-8 mitochondria were pretreated with 800 pmol CsA×mg protein^−1 for 3 mins. After the indicated time, DMSO (lanes 1-2) or 10 mM BMH (lanes 3-8) was added, and after another 30 min the crosslinking reaction was quenched (Wei et al., 2001). The mitochondria were subjected to SDS-PAGE and immunoblot with anti BAK antibody. Star, BAK multimers.
To also determine if the BID α6 14mer (SEQ ID NO:1) modulated BAK oligomerization, mitochondria were incubated for 30 min with 10 μM BID α6 14mer in the presence or in the absence of 1 μM CsA. Crosslinking with BMH, SDS-PAGE and anti BAK immunoblotting was carried out.

[3] = tested on: calcein loaded mitochondria; experiment: Release of matrix-entrapped calcein (transient PTP opening); type: biochemical, Balb/cJ mice; conditions: 10 μM BID α6 14mer
Procedure: To assess calcein release, mitochondria suspended in IB without BSA were loaded with 10 nmol×mg protein^−1 calcein-AM (Molecular Probes, Eugene, Oreg.) for 20 mins at room temperature in the dark. Following two washes in IB, the calcein loaded mitochondria were resuspended in IB at a final concentration of 10 mg/ml. 0.5 mg/ml calcein loaded mitochondria were incubated in EB and treated as described. After the indicated time, mitochondria were pelleted. Calcein was measured in an LS-50B spectrofluorimeter (Perkin Elmer) with excitation and emission wavelengths set at 488±2.5 nm and 542±2.5 nm, respectively.
After 30 min mitochondria were spun at 14000 g for 3 min at 4 C and the calcein content in the pellet and in the supernatant was determined. […] To determine if a BID α6 mutation variant, BID α6 mutein (SEQ ID NO:7), would inhibit cytochrome c release, His-tag p22 wt BID and the BID α6 mutein were expressed, purified on a Ni^2+ column, and cleaved with caspase 8.
Mitochondria were loaded with calcein and treated with 10 μM BID α6 14mer. Where noted, mitochondria were pretreated with 1 μM CsA. At the indicated time, mitochondria were pelleted by centrifugation and calcein in the pellet and in the supernatant was determined.

wt mitochondria = experiment: Cytochrome b5-dependent NADH oxidation assay; type: biochemical, Balb/cJ mice; conditions: 10 μM BID α6 14mer, 20 min
Procedure: (d), mitochondria were preincubated for 2 min with 800 pmol CsA×mg protein^−1. (a), no additions. After 15 min, respiratory chain inhibitors were added and after another 2 minutes NADH fluorescence reading started. Arrow, 20 nmol NADH×mg protein^−1. In (e), 200 nmol mersalyl×mg protein was added 1 min before NADH.
In the cytochrome b5-dependent NADH oxidation assay, 1 mg/ml mitochondria were incubated in EB and treated as indicated. 400 pmol CCCP, 2 nmol rotenone and 1 nmol antimycin A×mg protein^−1 were added after the time indicated and the reaction transferred to a cuvette. After 2 min, 10 μM NADH was added and its oxidation monitored as the decrease in NADH fluorescence in a LS50B spectrofluorimeter (Perkin Elmer) set with λex=366 nm and λem=455 nm, with 5 nm slits.

mitochondria [4] = experiment: Mitochondrial swelling by side scatter at 545 nm; type: biochemical, Balb/cJ mice; conditions: 10 μM 14mer
Procedure: tBID was evaluated to determine if it causes any swelling or depolarization that might reflect an opening of the PTP. Swelling of 0.5 mg/ml mitochondria incubated in EB was monitored by changes in side scatter at 545±2.5 nm using LS-50B spectrofluorimeter equipped with magnetic stirring at 25° C. Membrane potential changes of 0.5 mg/ml mitochondria incubated in experimental buffer were monitored from the dequenching of a 0.3 μM Rhodamine 123 (Molecular Probes, OR) solution in a LS-50B spectrofluorimeter at 25° C., using excitation and emission wavelengths set at 503±2.5 nm and 525±5 nm, respectively.
To determine if the BID α6 14mer (SEQ ID NO:1) induced mitochondrial swelling or release of cytochrome c across the mitochondrial outer membrane, mitochondria at 1 mg/ml were incubated in experimental buffer and, where indicated, 20 μM Ca^2+ and 10 μM 14mer were added. Where noted, mitochondria were preincubated with CsA. […] Mitochondria were incubated with 10 μM 14mer in the presence or in the absence of 1 μM CsA. At the indicated time in minutes, mitochondria were pelleted by centrifugation and cytochrome c in the pellet and in the supernatant was determined.

Row | Compound | release of total cytochrome c by digitonin (Bak −/− mitochondria) [%] | Cytochrome c release (% of total) (mitochondria [1]; Digitonin 48 pmol × mg protein^−1, 5 minutes) | Cytochrome c release (% of total) (mitochondria [1]; Digitonin 80 pmol × mg protein^−1, 5 minutes) | Cytochrome c release (% of total) (mitochondria [1]; Digitonin 145 pmol × mg protein^−1, 5 minutes) | total cytochrome c released by digitonin (mitochondria [1]; without substantial respiratory inhibition) | Uncoupled JO2 (mitochondria [2]; Digitonin 48 pmol × mg protein^−1) | Uncoupled JO2 (mitochondria [2]; Digitonin 80 pmol × mg protein^−1) | Uncoupled JO2 (mitochondria [2]; Digitonin 145 pmol × mg protein^−1) | BAK oligomerization (BAK) | calcein release (onset of transient PT) [3] | mobilization of cytochrome c (cytochrome b5-dependent NADH oxidation) (wt mitochondria) | release of cytochrome c across the mitochondrial outer membrane (mitochondria [1]; 10 μM 14mer) | mitochondrial swelling (mitochondria [4])
1 | C[C@@H]1CC[C@@]2(OC1)O[C@H]1[C@@H](O)[C@H]3[C@@H]4CC[C@H]5C[C@@H](O[C@@H]6O[C@H](CO)[C@H](O[C@@H]7O[C@H](CO)[C@@H](O)[C@H](O[C@@H]8OC[C@@H](O)[C@H](O)[C@H]8O)[C@H]7O[C@@H]7O[C@H](CO)[C@H](O)[C@H](O[C@@H]8O[C@H](CO)[C@@H](O)[C@H](O)[C@H]8O)[C@H]7O)[C@H](O)[C@H]6O)[C@H](O)C[C@]5(C)[C@H]4CC[C@]3(C)[C@H]1[C@@H]2C [Digitonin] | 19.2±4.8 | 10.7 % of total | 16.4 % of total | 26.6 % of total | Approximately 16% | 60 nAt × min^−1 × mg protein^−1 | 60 nAt × min^−1 × mg protein^−1 | 46.7 nAt × min^−1 × mg protein^−1 |  |  |  |  | 
2 | NH2-XMLXXXXLLAKKVA—COOH [BID α6 14mer, 14 amino acid peptide of the BID α6 helix] |  |  |  |  |  |  |  |  | did not result in BAK oligomerization; also recorded: does not induce BAK oligomerization | resulted in the efflux of mitochondrial matrix entrapped calcein; also recorded: causes calcein release from mitochondria | induced the mobilization of cytochrome c; also recorded: induces cytochrome c redistribution | nor did it trigger the actual release of cytochrome c across the mitochondrial outer membrane; also recorded: does not cause cytochrome c release across the outer membrane | did not induce swelling of mitochondria; also recorded: does not induce mitochondrial swelling
